Results: PMC5387711 (Cell Discovery, 2017)

Target: T1, CARF (hCARF; collaborator of ARF) (Homo sapiens, UniProt Q9NXV6)
T1 construct: gene CDKN2AIP; full length; site Cys-516 in C-terminal fragment C1
T1 sequence (Q9NXV6 2-580): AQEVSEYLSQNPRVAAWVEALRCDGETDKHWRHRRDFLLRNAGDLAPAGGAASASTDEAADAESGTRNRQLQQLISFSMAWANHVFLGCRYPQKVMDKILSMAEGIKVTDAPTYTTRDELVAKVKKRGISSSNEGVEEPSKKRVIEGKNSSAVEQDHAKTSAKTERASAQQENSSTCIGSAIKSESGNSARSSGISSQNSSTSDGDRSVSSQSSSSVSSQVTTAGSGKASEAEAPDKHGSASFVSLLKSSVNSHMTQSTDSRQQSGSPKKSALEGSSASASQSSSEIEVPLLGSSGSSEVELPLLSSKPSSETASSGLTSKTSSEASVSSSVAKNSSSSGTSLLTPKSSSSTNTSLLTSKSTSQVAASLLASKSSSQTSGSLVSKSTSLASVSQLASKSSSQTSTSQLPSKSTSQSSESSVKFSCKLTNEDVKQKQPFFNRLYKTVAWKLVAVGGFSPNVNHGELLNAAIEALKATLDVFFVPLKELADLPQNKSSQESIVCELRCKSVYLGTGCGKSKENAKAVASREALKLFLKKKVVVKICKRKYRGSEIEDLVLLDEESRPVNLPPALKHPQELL
Test: competition with S-614 for bead-bound His6-hCARF
Assay type: binding
Details: 15 uM NC043 against 7.5 uM S-614, 1 h, 4 C; covalent (Cys-516)

Structure (SMILES): C=C1C(=O)[C@]23CC[C@H]1C[C@H]2[C@@]12CCC[C@@](C)(COC1=O)[C@H]2C[C@H]3O [NC043]
- competition with S-614 for bead-bound His6-hCARF: S-614 directly binds to CARF, which could be competed off by NC043
